Data on nine molecules can be found in US4323567A, “Arylmalonamido-1-oxadethiacephalosporins” (priority 1976, dated 1982).

Test in all cases: Minimal inhibitory concentration, nutrient agar plate
In one experiment the test system is Escherichia coli H. In kind it is cell-based. The settings on record: as sodium salt, inoculum size 10^8, pH 7.0, read-out: Minimal inhibitory concentration.
The subject of the next experiment is Klebsiella sp. 363. In kind it is cell-based. The settings on record: SP.363, as sodium salt, inoculum size 10^8, pH 7.0, read-out: Minimal inhibitory concentration.
The subject of the next experiment is Ps. aeruginosa 25619. In kind it is cell-based, Pseudomonas aeruginosa. Conditions: Pseudomonas aeruginosa, 25619; as sodium salt, inoculum size 10^8, pH 7.0; read-out: Minimal inhibitory concentration.
A further experiment has as its system E. coli 377. The class given is cell-based, Escherichia coli. Conditions: Escherichia coli, 377; as sodium salt, inoculum size 10^8, pH 7.0; read-out: Minimal inhibitory concentration.
In another experiment the test system is Klebsiella pneumoniae. In kind it is cell-based. Conditions: as sodium salt, inoculum size 10^8, pH 7.0, read-out: Minimal inhibitory concentration.
The subject of experiment [1] is Serratia marsescens 13880. The class given is cell-based. The settings on record: Serratia, 13880; as sodium salt, inoculum size 10^8, pH 7.0; read-out: Minimal inhibitory concentration.
The next experiment concerns E. coli JC-2. The class given is cell-based. The settings on record: Escherichia coli, JC2; as sodium salt, inoculum size 10^8, pH 7.0; read-out: Minimal inhibitory concentration.
A further experiment has as its system Enterobacter cloacae 233. The class given is cell-based. The settings on record: Enterobacter cloacae, 233; as sodium salt, inoculum size 10^8, pH 7.0; read-out: Minimal inhibitory concentration.
For the next experiment, the system named is E. coli 73. The class given is cell-based, Escherichia coli. The settings on record: Escherichia coli, 73; as sodium salt, inoculum size 10^8, pH 7.0; read-out: Minimal inhibitory concentration.
The subject of experiment [2] is Pseudomonas aeruginosa Denken. The class given is cell-based. The settings on record: as sodium salt, inoculum size 10^8, pH 7.0, read-out: Minimal inhibitory concentration.
The test system of another experiment is Proteus mirabilis PR-4. In kind it is cell-based. The settings on record: PR4, as sodium salt, inoculum size 10^8, pH 7.0, read-out: Minimal inhibitory concentration.
The subject of another experiment is P. vulgaris CN-329. The class given is cell-based. Conditions: Proteus vulgaris, CN329; as sodium salt, inoculum size 10^8, pH 7.0; read-out: Minimal inhibitory concentration.
A further experiment relates to P. morganii No. 9. In kind it is cell-based, Proteus morganii. The settings on record: Morganella morganii, NO.9; as sodium salt, inoculum size 10^8, pH 7.0; read-out: Minimal inhibitory concentration.
For the next experiment, the system named is Ps. aeruginosa 24. The class given is cell-based, Pseudomonas aeruginosa. The settings on record: Pseudomonas aeruginosa, 24; as sodium salt, inoculum size 10^8, pH 7.0; read-out: Minimal inhibitory concentration.

As to `Cn1nnnc1SCC1=C(C(=O)O)N2C(=O)[C@@H](NC(=O)C(C(=O)O)c3ccsc3)[C@H]2OC1` (stereo partly drawn) [Example III-9, 7β-[α-(3-thienyl)-α-carboxyacetamido]-3-(1-methyltetrazol-5-yl)thiomethyl-1-oxadethia-3-cephem-4-carboxylic acid], the MIC is 0.1 µg/mL with Escherichia coli H; above 100 µg/mL in the experiment with Klebsiella sp. 363; 6.25 µg/mL in the experiment on Ps. aeruginosa 25619; 0.2 µg/mL in the experiment on E. coli 377; 0.2 µg/mL in the experiment with Klebsiella pneumoniae; 0.78 µg/mL in experiment [1]. For the same molecule, the MIC was 0.1 µg/mL with E. coli JC-2; 0.39 µg/mL in the experiment with Enterobacter cloacae 233; above 100 µg/mL in the experiment on E. coli 73; above 100 µg/mL in [2]; 0.39 µg/mL in the experiment with Proteus mirabilis PR-4; 100 µg/mL in the experiment on P. vulgaris CN-329. Moreover, the MIC in the experiment with P. morganii No. 9 was determined as 0.39 µg/mL.

Consider `CC1=C(C(=O)O)N2C(=O)[C@@H](NC(=O)C(N)c3ccccc3)[C@H]2OC1` (stereo partly drawn) [(1), 7β-(α-phenylglycinamido)3-methyl-1-oxadethia-3-cephem-4-carboxlic acid, reference compound], for which the MIC in the experiment with Escherichia coli H, with Ps. aeruginosa 24, with Klebsiella sp. 363, in the experiment with Ps. aeruginosa 25619, with E. coli 377 and in the experiment on Klebsiella pneumoniae was above 100 µg/mL in each case. Besides, the MIC (in experiment [1]; in the experiment on E. coli JC-2; with Enterobacter cloacae 233; in the experiment with E. coli 73; in experiment [2]; with Proteus mirabilis PR-4) was above 100 µg/mL in each case. For the same molecule, the MIC with P. vulgaris CN-329 and with P. morganii No. 9 was above 100 µg/mL each time.

For the molecule `O=C(O)Cn1nnnc1SCC1=C(C(=O)O)N2C(=O)[C@@H](NC(=O)C(C(=O)O)c3cccs3)[C@H]2OC1` (stereo partly drawn) [Example III-11, 7β-[α-(2-thienyl)-α-carboxyacetamido]-3-(1-carboxymethyltetrazol-5-yl)thiomethyl-1-oxadethia-3-cephem-4-carboxylic acid], the MIC was 0.78 µg/mL in the experiment on Escherichia coli H; above 100 µg/mL with Klebsiella sp. 363; above 100 µg/mL with Ps. aeruginosa 25619; 6.25 µg/mL in the experiment on E. coli 377; 3.13 µg/mL with Klebsiella pneumoniae; 25 µg/mL in experiment [1]. Further, the MIC in the experiment with E. coli JC-2 was 12.5 µg/mL; in the experiment with Enterobacter cloacae 233 it was 25 µg/mL; in the experiment on E. coli 73, above 100 µg/mL; in experiment [2] it was above 100 µg/mL; in the experiment on Proteus mirabilis PR-4 it was 1.56 µg/mL; in the experiment with P. vulgaris CN-329 it was above 100 µg/mL. In addition, in the experiment on P. morganii No. 9, the MIC was 1.56 µg/mL.

In the case of `Cc1nnc(SCC2=C(C(=O)O)N3C(=O)[C@@H](NC(=O)Cn4cnnn4)[C@H]3OC2)s1` [(3), 7β-(1tetrazolyl)acetamido-3-(2-methyl-1,3,4-thiadiazol-5-yl)thiomethl-1-oxadethia-3-cephem-4-carboxylic acid, reference compound], the MIC is 1.56 µg/mL with Escherichia coli H; above 100 µg/mL with Ps. aeruginosa 24; above 100 µg/mL in the experiment on Klebsiella sp. 363; above 100 µg/mL in the experiment with Ps. aeruginosa 25619; 25 µg/mL in the experiment on E. coli 377; 3.13 µg/mL with Klebsiella pneumoniae. Besides, the MIC was above 100 µg/mL in experiment [1]; 1.56 µg/mL in the experiment on E. coli JC-2; above 100 µg/mL in the experiment with Enterobacter cloacae 233; above 100 µg/mL with E. coli 73; above 100 µg/mL in [2]; 1.56 µg/mL with Proteus mirabilis PR-4. Moreover, the MIC in the experiment with P. vulgaris CN-329 is above 100 µg/mL; with P. morganii No. 9, 50 µg/mL.

Turning to `Cc1nnc(SCC2=C(C(=O)O)N3C(=O)[C@@H](NC(=O)C(C(=O)O)c4ccccc4)[C@H]3OC2)s1` (stereo partly drawn) [Example III-12, 7β-(α-phenyl-α-carboxyacetamido)-3-(2-methyl-1,3,4-thiadiazol-5-yl)thiomethyl-1-oxadethia-3-cephem-4-carboxylic acid], the MIC is 0.2 µg/mL in the experiment on Escherichia coli H; above 100 µg/mL with Ps. aeruginosa 24; above 100 µg/mL in the experiment on Klebsiella sp. 363; 3.13 µg/mL in the experiment with Ps. aeruginosa 25619; 0.78 µg/mL in the experiment with E. coli 377; 0.78 µg/mL in the experiment with Klebsiella pneumoniae. Besides, the MIC in [1] was 1.56 µg/mL; in the experiment on E. coli JC-2 it was 0.39 µg/mL; in the experiment on Enterobacter cloacae 233, 1.56 µg/mL; in the experiment with E. coli 73 it was above 100 µg/mL; in [2], above 100 µg/mL; in the experiment on Proteus mirabilis PR-4, 0.39 µg/mL. Moreover, the MIC in the experiment with P. vulgaris CN-329 was found to be 100 µg/mL; with P. morganii No. 9 it was 0.39 µg/mL.

For `CC(=O)OCC1=C(C(=O)O)N2C(=O)[C@@H](NC(=O)Cc3cccs3)[C@H]2OC1` [(2), 7β-(2thienylacetamido)-1-oxadethiacephalosporanic acid, reference compound], the MIC in the experiment on Escherichia coli H is 0.39 µg/mL; in the experiment with Ps. aeruginosa 24 it was above 100 µg/mL; in the experiment with Klebsiella sp. 363 it was above 100 µg/mL; with Ps. aeruginosa 25619, above 100 µg/mL; in the experiment with E. coli 377, above 100 µg/mL; in the experiment on Klebsiella pneumoniae, 1.56 µg/mL. In addition, the MIC in [1] is above 100 µg/mL; with E. coli JC-2, 6.25 µg/mL; in the experiment on Enterobacter cloacae 233, above 100 µg/mL; in the experiment on E. coli 73, above 100 µg/mL; in experiment [2], above 100 µg/mL; with Proteus mirabilis PR-4, 1.56 µg/mL. Also, the MIC in the experiment on P. vulgaris CN-329 and in the experiment with P. morganii No. 9 was above 100 µg/mL each time.

In the case of `Cn1nnnc1SCC1=C(C(=O)O)N2C(=O)[C@@H](NC(=O)C(C(=O)O)c3cccs3)[C@H]2OC1` (stereo partly drawn) [Example III-8, 7β-[α-(2-thienyl)-α-carboxyacetamido]-3-(1-methyltetrazol-5-yl)thiomethyl-1-oxadethia-3-cephem-4-carboxylic acid], the MIC in the experiment with Escherichia coli H was 0.1 µg/mL; in the experiment on Ps. aeruginosa 24 it was above 100 µg/mL; in the experiment on Klebsiella sp. 363, above 100 µg/mL; with Ps. aeruginosa 25619 it was 3.13 µg/mL; with E. coli 377 it was 0.2 µg/mL; in the experiment with Klebsiella pneumoniae, 0.1 µg/mL. Besides, the MIC in experiment [1] is 0.78 µg/mL; with E. coli JC-2, 0.1 µg/mL; in the experiment with Enterobacter cloacae 233, 0.2 µg/mL; in the experiment with E. coli 73, above 100 µg/mL; in experiment [2], above 100 µg/mL; in the experiment with Proteus mirabilis PR-4, 0.2 µg/mL. The MIC in the experiment on P. vulgaris CN-329 was found to be 50 µg/mL; in the experiment on P. morganii No. 9, 0.39 µg/mL.

Take `Cn1nnnc1SCC1=C(C(=O)O)N2C(=O)[C@@H](NC(=O)C(C(=O)O)c3ccccc3)[C@H]2OC1` (stereo partly drawn) [Example III-1, 7β-(α-phenyl-α-carboxyacetamido)-3-(1-methyltetrazol-5-yl)thiomethyl-1-oxadethia-3-cephem-4-carboxylic acid]: the MIC with Escherichia coli H was 0.1 µg/mL; in the experiment with Ps. aeruginosa 24, above 100 µg/mL; in the experiment on Ps. aeruginosa 25619, 3.13 µg/mL; in the experiment on E. coli 377, 0.2 µg/mL; in the experiment on Klebsiella pneumoniae it was 0.2 µg/mL; in experiment [1] it was 0.78 µg/mL. The MIC is 0.2 µg/mL in the experiment with E. coli JC-2; 0.39 µg/mL in the experiment with Enterobacter cloacae 233; above 100 µg/mL with E. coli 73; above 100 µg/mL in experiment [2]; 0.39 µg/mL in the experiment on Proteus mirabilis PR-4; 100 µg/mL in the experiment on P. vulgaris CN-329. The MIC with P. morganii No. 9 stood at 0.39 µg/mL.

With `O=C(O)Cn1nnnc1SCC1=C(C(=O)O)N2C(=O)[C@@H](NC(=O)C(C(=O)O)c3ccccc3)[C@H]2OC1` (stereo partly drawn) [Example III-10, 7β-(α-carboxy-α-phenylacetamido)-3-(1-carboxymethyltetrazol-5-yl)thiomethyl-1-oxadethia-3-cephem-4-carboxylic acid], the MIC in the experiment with Escherichia coli H is 0.78 µg/mL; in the experiment with Ps. aeruginosa 24, above 100 µg/mL; in the experiment with Klebsiella sp. 363, above 100 µg/mL; with Ps. aeruginosa 25619, 100 µg/mL; with E. coli 377, 0.25 µg/mL; with Klebsiella pneumoniae, 3.13 µg/mL. For the same molecule, the MIC was 50 µg/mL in experiment [1]; 3.13 µg/mL with E. coli JC-2; 12.5 µg/mL in the experiment on Enterobacter cloacae 233; above 100 µg/mL in the experiment with E. coli 73; above 100 µg/mL in experiment [2]; 0.78 µg/mL in the experiment on Proteus mirabilis PR-4. The MIC is above 100 µg/mL in the experiment on P. vulgaris CN-329 and 0.78 µg/mL with P. morganii No. 9.
